pIC50, pKi: −log10 of the molar value.
Key:
Butyrylcholinesterase = Butyrylcholinesterase (Equus caballus, UniProt Q9N1N9)
Description: Dissociation constant for inhibition of equine Butyrylcholinesterase (BuChE)

[1] = Inhibitory ratio for bovine acetylcholinesterase and equine butyrylcholinesterase
Acetylcholinesterase [2] = molecular target: T1, Acetylcholinesterase (Bos taurus, UniProt P23795)
T1 sequence (P23795 whole entry): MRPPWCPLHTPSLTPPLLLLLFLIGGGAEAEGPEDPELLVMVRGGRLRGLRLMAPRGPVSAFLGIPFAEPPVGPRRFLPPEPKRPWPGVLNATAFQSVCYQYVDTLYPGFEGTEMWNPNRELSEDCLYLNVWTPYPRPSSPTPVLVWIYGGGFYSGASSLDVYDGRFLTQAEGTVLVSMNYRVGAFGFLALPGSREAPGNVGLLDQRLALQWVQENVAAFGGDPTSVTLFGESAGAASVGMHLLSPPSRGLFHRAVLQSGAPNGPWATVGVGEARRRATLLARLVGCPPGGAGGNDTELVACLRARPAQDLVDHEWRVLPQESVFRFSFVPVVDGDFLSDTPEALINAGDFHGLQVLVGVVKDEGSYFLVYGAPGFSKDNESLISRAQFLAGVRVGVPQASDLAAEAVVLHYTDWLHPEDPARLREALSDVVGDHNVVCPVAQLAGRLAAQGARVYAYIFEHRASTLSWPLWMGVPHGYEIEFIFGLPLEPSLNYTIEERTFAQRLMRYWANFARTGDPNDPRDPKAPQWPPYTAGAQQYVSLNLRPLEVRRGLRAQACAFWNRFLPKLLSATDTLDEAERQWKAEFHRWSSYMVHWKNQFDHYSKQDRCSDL
Description: Dissociation constant for inhibition of fetal bovine serum Acetylcholinesterase

Cholinesterase = Cholinesterase (Homo sapiens, UniProt P06276); experiment: Inhibitory concentration against human butyrylcholinesterase
Chain of Cholinesterase (P06276 whole entry): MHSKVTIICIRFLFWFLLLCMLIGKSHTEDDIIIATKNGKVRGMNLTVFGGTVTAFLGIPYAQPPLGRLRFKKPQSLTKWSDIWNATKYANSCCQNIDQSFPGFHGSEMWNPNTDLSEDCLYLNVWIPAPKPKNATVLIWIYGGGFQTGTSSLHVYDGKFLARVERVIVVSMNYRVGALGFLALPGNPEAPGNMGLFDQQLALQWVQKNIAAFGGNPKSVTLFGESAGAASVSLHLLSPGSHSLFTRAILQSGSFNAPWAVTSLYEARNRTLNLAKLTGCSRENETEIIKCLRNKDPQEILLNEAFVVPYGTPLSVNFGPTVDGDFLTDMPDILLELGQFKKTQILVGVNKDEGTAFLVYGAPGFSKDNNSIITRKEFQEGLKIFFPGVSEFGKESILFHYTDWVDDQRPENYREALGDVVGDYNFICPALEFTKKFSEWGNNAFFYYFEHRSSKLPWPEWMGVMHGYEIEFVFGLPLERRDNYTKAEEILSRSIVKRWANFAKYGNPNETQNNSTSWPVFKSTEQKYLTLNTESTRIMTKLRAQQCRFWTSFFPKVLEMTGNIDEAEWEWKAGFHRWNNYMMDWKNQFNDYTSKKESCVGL

Acetylcholinesterase [3] = molecular target: Acetylcholinesterase (Homo sapiens, UniProt P22303); experiment: Inhibitory concentration against human Acetylcholinesterase
Chain of Acetylcholinesterase (Homo sapiens, UniProt P22303) (P22303 whole entry): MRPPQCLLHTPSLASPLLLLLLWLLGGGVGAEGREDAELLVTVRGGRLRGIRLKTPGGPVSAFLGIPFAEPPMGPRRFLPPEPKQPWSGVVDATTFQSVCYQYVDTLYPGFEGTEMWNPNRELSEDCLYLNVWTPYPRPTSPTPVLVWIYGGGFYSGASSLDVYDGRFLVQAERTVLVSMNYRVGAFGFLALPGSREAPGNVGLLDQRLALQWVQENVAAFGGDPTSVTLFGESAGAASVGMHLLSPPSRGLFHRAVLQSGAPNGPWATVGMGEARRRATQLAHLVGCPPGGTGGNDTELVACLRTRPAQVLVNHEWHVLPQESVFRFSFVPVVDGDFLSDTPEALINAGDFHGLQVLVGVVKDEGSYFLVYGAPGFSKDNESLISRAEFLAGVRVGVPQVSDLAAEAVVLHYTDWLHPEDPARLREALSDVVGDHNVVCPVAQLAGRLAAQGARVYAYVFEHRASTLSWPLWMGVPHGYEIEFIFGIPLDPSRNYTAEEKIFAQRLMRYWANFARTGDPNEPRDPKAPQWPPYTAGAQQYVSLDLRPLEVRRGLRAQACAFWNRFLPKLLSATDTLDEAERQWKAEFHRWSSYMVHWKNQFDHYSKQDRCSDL

Chain of Butyrylcholinesterase (Q9N1N9 whole entry): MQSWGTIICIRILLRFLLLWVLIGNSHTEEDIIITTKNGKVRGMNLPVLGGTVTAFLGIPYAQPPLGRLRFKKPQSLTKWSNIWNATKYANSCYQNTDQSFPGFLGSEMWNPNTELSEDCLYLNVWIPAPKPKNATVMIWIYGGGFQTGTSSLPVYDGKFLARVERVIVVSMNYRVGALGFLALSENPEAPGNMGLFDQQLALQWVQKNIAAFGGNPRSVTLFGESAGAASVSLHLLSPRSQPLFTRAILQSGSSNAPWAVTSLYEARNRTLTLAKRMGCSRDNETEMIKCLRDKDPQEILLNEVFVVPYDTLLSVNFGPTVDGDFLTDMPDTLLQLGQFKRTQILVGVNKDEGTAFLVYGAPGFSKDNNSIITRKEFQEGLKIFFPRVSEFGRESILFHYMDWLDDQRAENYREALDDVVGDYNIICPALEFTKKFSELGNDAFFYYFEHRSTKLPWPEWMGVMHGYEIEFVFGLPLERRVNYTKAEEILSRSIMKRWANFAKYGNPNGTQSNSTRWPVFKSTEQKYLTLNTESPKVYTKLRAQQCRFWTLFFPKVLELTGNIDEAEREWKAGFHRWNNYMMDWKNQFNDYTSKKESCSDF

With CCN(CC)C(C)CN1c2ccccc2Sc2ccccc21 (stereo not given) [ETHOPROPAZINE] as the compound, how does the pKi (Butyrylcholinesterase) read?
Its pKi is 7.70.

For CC(=O)N(CCCNc1c2c(nc3ccccc13)CCCC2)CCCNc1c2ccccc2nc2ccccc12, which Ratio [1] is on record?
Its Ratio is 750.

And the pKi (Butyrylcholinesterase)?
The pKi was 8.70.

And the pKi (Acetylcholinesterase [2])?
Its pKi is 5.82.

And the pIC50 (Cholinesterase)?
Its pIC50 is 8.41.

Which Ratio [1] does the source give for C=CCN(CCCNc1c2c(nc3ccccc13)CCCC2)CCCNc1c2ccccc2nc2ccccc12 here?
The Ratio was 2.1.

What about the pKi (Butyrylcholinesterase) of the same compound?
Its pKi is 9.12.

What about the pKi (Acetylcholinesterase [2]) of the same compound?
The pKi was 8.80.

What does the source list for c1ccc2c(NCCCCCCCCSc3c4c(nc5ccccc35)CCCC4)c3c(nc2c1)CCCC3?
Ratio [1]: 625; pIC50 (Cholinesterase): 9.11

Which Ratio [1] does the source give for CN(CCCNc1c2c(nc3ccccc13)CCCC2)CCCSc1c2c(nc3ccccc13)CCCC2 here?
Its Ratio is 2.2.

And the pKi (Butyrylcholinesterase)?
The pKi was 8.38.

And the pKi (Acetylcholinesterase [2])?
The pKi was 8.04.

What does the source list for CN(CCCCSc1c2c(nc3ccccc13)CCCC2)CCCNc1c2c(nc3ccccc13)CCCC2?
Ratio [1]: 191; pKi (Butyrylcholinesterase): 9.17; pKi (Acetylcholinesterase [2]): 6.89

What does the source list for c1ccc2c(NCCCCCNc3c4c(nc5ccccc35)CCCC4)c3c(nc2c1)CCCC3?
Ratio [1]: 2.1; pKi (Butyrylcholinesterase): 7.00; pKi (Acetylcholinesterase [2]): 6.68

With CC(=O)N(CCCNc1c2c(nc3ccccc13)CCCC2)CCCSc1c2c(nc3ccccc13)CCCC2 as the compound, how does the Ratio [1] read?
The Ratio was 217.

What about the pKi (Butyrylcholinesterase) of the same compound?
The pKi was 9.64.

What about the pKi (Acetylcholinesterase [2]) of the same compound?
Its pKi is 7.30.

With c1ccc2c(NCCCCCCCCCSc3c4c(nc5ccccc35)CCCC4)c3c(nc2c1)CCCC3 as the compound, how does the Ratio [1] read?
Its Ratio is 86.

What about the pKi (Butyrylcholinesterase) of the same compound?
Its pKi is 8.64.

And the pKi (Acetylcholinesterase [2])?
The pKi was 6.71.

Which Ratio [1] does the source give for CN(CCCNc1c2c(nc3ccccc13)CCCC2)CCCNc1c2c(nc3ccccc13)CCCC2 here?
Its Ratio is 0.01.

And the pIC50 (Acetylcholinesterase [3])?
Its pIC50 is 9.52.

What about the pIC50 (Cholinesterase) of the same compound?
Its pIC50 is 7.98.

Which Ratio [1] does the source give for OCCN(CCCNc1c2c(nc3ccccc13)CCCC2)CCCNc1c2ccccc2nc2ccccc12 here?
Its Ratio is 0.2.

And the pKi (Butyrylcholinesterase)?
Its pKi is 8.48.

And the pKi (Acetylcholinesterase [2])?
Its pKi is 9.19.

Which results are given for CC(=O)N(CCCCSc1c2c(nc3ccccc13)CCCC2)CCCNc1c2c(nc3ccccc13)CCCC2?
Ratio [1]: 427; pKi (Butyrylcholinesterase): 9.96; pKi (Acetylcholinesterase [2]): 7.33

Which Ratio [1] does the source give for c1ccc2c(NCCCCCCCSc3c4c(nc5ccccc35)CCCC4)c3c(nc2c1)CCCC3 here?
The Ratio was 9.7.
